Experimental findings from patent US20140343017A1, “PYRROLE COMPOUND” (Kabushiki Kaisha Yakult Honsha, priority 2012, published 2014) are described below.

Common to all, as to test: Inhibitory effect on growth of human cancer cells (in vitro), WST-8
Common to all, as to type: cell-based
On the technique in general: Tetrazolium dyes change colour on reduction, which living cells bring about.

Test [1] relates to human colorectal cancer HCT116 cells. The settings on record: Homo sapiens, HCT-116, 96 h, 96 hours culture. The protocol: (§1) Each pyrrole compound of the present invention was studied for its effects on the growth of human non-small cell lung cancer A549 cells and human colorectal cancer HT-29 cells and HCT116 cells. The cells of each line were suspended in an RPMI1640 medium supplemented with 10% fetal bovine serum and inoculated at a cell density of 1000 cells/50 μL/well to a 96-well plate. After overnight culture, each compound diluted with a medium was added thereto at a concentration of 50 μL/well, and the cells were further cultured for 96 hours. After the completion of culture, WST-8 (Seikagaku Corp.) was added thereto at a concentration of 10 μL/well, and the cells were cultured at 37° C. for approximately 1 hour under 5% CO2 conditions, followed by measurement of absorbance at 450 nm.

Test [2] deals with human colorectal cancer HT-29 cells. The note with it: Homo sapiens, HT-29, 96 h, 96 hours culture, read-out: IC50 (nM) HT29. Here is the method: as §1
Test [3] relates to human non-small cell lung cancer A549 cells. The settings on record: Homo sapiens, A549, 96 h, 96 hours culture. Here is the method:
as §1

Consider `COc1ccc(C(=O)c2c(/C=N/O)[nH]c(-c3nnn(CCOC(C)=O)n3)c2C)cc1Br` [Compound 169, (E)-2-(5-(4-(3-bromo-4-methoxybenzoyl)-5-((hydroxyimino)methyl)-3-methyl-1H-pyrrol-2-yl)-2H-tetrazol-2-yl)ethyl acetate], for which the IC50 – broadly, the midpoint of a concentration-inhibition curve – in test [1] was 162 nM; in test [2], 167 nM; in test [3] it was 225 nM.
On to `COc1ccc(C(=O)c2c(/C=N\O)[nH]c(-c3nnn(CCOC(C)=O)n3)c2C)cc1Br` [Compound 170, (Z)-2-(5-(4-(3-bromo-4-methoxybenzoyl)-5-((hydroxyimino)methyl)-3-methyl-1H-pyrrol-2-yl)-2H-tetrazol-2-yl)ethyl acetate], for which the IC50 in test [1] amounted to 133 nM; in test [2], 143 nM; in test [3], 197 nM.
Turning to `CC(=O)OCCn1nnc(-c2[nH]c(CCl)c(C(=O)c3cccc(Br)c3)c2C)n1` [Compound 171, 2-(5-(4-(3-bromobenzoyl)-5-(chloromethyl)-3-methyl-1H-pyrrol-2-yl)-2H-tetrazol-2-yl)ethyl acetate], the results for the IC50 in test [1], in test [2] and in test [3] were 37.7 nM, 35.7 nM and 47.4 nM, respectively.
For `COc1ccc(C(=O)c2c(CCl)[nH]c(-c3nnn(CCOC(C)=O)n3)c2C)cc1Br` [Compound 172, 2-(5-(4-(3-bromo-4-methoxybenzoyl)-5-(chloromethyl)-3-methyl-1H-pyrrol-2-yl)-2H-tetrazol-2-yl)ethyl acetate] the same measures were 36.9 nM, 34.5 nM and 47 nM.
`Cc1[nH]c(-c2nnc(CCCl)o2)c(C)c1C(=O)c1cccc(Br)c1` [Compound 174, (3-bromophenyl)(5-(5-(2-chloroethyl)-1,3,4-oxadiazol-2-yl)-2,4-dimethyl-1H-pyrrol-3-yl)methanone]: the IC50 turned out to be 44.6 nM in test [1], 38.6 nM in test [2] and 77.1 nM in test [3].
For `Cc1[nH]c(-c2nnc(C3CC3)o2)c(C)c1C(=O)c1cccc(Br)c1` [Compound 177, (3-bromophenyl)(5-(5-cyclopropyl-1,3,4-oxadiazol-2-yl)-2,4-dimethyl-1H-pyrrol-3-yl)methanone] the same measures were 0.4 nM, 0.4 nM and 1.5 nM.
As to `Cc1[nH]c(-c2nnc(C(C)C)o2)c(C)c1C(=O)c1cccc(Br)c1` [Compound 178, (3-bromophenyl) (5-(5-isopropyl-1,3,4-oxadiazol-2-yl)-2,4-dimethyl-1H-pyrrol-3-yl)methanone], the IC50 in test [1] turned out to be 45.1 nM; in test [2], 36.9 nM; in test [3] it was 71.8 nM.
For `Cc1[nH]c(-c2nnc(C3CCC3)o2)c(C)c1C(=O)c1cccc(Br)c1` [Compound 179, (3-bromophenyl) (5-(5-cyclobutyl-1,3,4-oxadiazol-2-yl)-2,4-dimethyl-1H-pyrrol-3-yl)methanone] the same measures were 329 nM, 336 nM and 800 nM.
In the case of `Cc1nnc(-c2[nH]c(C)c(C(=O)c3cccc(Br)c3)c2C)o1` [Compound 185, (3-bromophenyl) (2,4-dimethyl-5-(5-methyl-1,3,4-oxadiazol-2-yl)-1H-pyrrol-3-yl)methanone], the 50% inhibitory concentration (IC50) in test [1] came to 2.9 nM; in test [2], 1.8 nM; in test [3], 9.1 nM.
With `Cc1[nH]c(-c2nnc(C(F)F)o2)c(C)c1C(=O)c1cccc(Br)c1` [Compound 186, (3-bromophenyl)(5-(5-(difluoromethyl)-1,3,4-oxadiazol-2-yl)-2,4-dimethyl-1H-pyrrol-3-yl)methanone], the IC50 in test [1] came to 64.1 nM; in test [2], 41.7 nM; in test [3], 289 nM.
Turning to `Cc1[nH]c(-c2nnc(C3(O)CC3)o2)c(C)c1C(=O)c1cccc(Br)c1` [Compound 188, (3-bromophenyl)(5-(5-(1-hydroxycyclopropyl)-1,3,4-oxadiazol-2-yl)-2,4-dimethyl-1H-pyrrol-3-yl)methanone], the values for the IC50 in test [1], in test [2] and in test [3] were 40.4 nM, 35.1 nM and 37.8 nM, respectively.
For `Cc1[nH]c(-c2nnc(C3(C)CC3)o2)c(C)c1C(=O)c1cccc(Br)c1` [Compound 189, (3-bromophenyl)(2,4-dimethyl-5-(5-(1-methylcyclopropyl)-1,3,4-oxadiazol-2-yl)-1H-pyrrol-3-yl)methanone] the same measures were 199 nM, 135 nM and 164 nM.
On the same counts, the results for `Cc1[nH]c(-c2nnc(C3CC3C)o2)c(C)c1C(=O)c1cccc(Br)c1` (stereo not drawn) [Compound 190, (3-bromophenyl) (2,4-dimethyl-5-(5-(2-methylcyclopropyl)-1,3,4-oxadiazol-2-yl)-1H-pyrrol-3-yl)methanone] are 219 nM, 192 nM and 266 nM.
For `CCc1nnc(-c2[nH]c(C)c(C(=O)c3cccc([N+](=O)[O-])c3)c2C)o1` [Compound 195, (5-(5-ethyl-1,3,4-oxadiazol-2-yl)-2,4-dimethyl-1H-pyrrol-3-yl)(3-nitrophenyl)methanone] the same measures were 9.9 nM, 8.5 nM and 12.2 nM.
In the case of `Cc1[nH]c(-c2nnc(C3CC3)o2)c(C)c1C(=O)c1cccc([N+](=O)[O-])c1` [Compound 196, (5-(5-cyclopropyl-1,3,4-oxadiazol-2-yl)-2,4-dimethyl-1H-pyrrol-3-yl)(3-nitrophenyl)methanone], the IC50 came to 5.5 nM in test [1], 6.2 nM in test [2] and 9.9 nM in test [3].
As to `CCc1nnc(-c2[nH]c(C)c(C(=O)c3ccc(OC)c(Br)c3)c2C)o1` [Compound 197, (3-bromo-4-methoxyphenyl)(5-(5-ethyl-1,3,4-oxadiazol-2-yl)-2,4-dimethyl-1H-pyrrol-3-yl)methanone], the figures for the concentration for half-maximal inhibition (IC50) in test [1], in test [2] and in test [3] were 1.4 nM, 0.9 nM and 3.9 nM, respectively.
As to `Cc1[nH]c(-c2nnc(C3CC3)o2)c(C)c1C(=O)c1cccc(CO)c1` [Compound 199, (5-(5-cyclopropyl-1,3,4-oxadiazol-2-yl)-2,4-dimethyl-1H-pyrrol-3-yl)(3-(hydroxymethyl)phenyl)methanone], the values for the IC50 in test [1], in test [2] and in test [3] were 10.6 nM, 9 nM and 19.5 nM, respectively.
For `Cc1c(-c2nnc(C3CC3)o2)[nH]c(C2SCCCS2)c1C(=O)c1cccc(Br)c1` [Compound 200, (3-bromophenyl) (5-(5-cyclopropyl-1,3,4-oxadiazol-2-yl)-2-(1,3-dithian-2-yl)-4-methyl-1H-pyrrol-3-yl)methanone] the same measures were 647 nM, 209 nM and 389 nM.
Turning to `COc1ccc(Br)cc1C(=O)c1c(C)[nH]c(-c2nnc(COC(C)=O)o2)c1C` [Compound 202, (5-(4-(5-bromo-2-methoxybenzoyl)-3,5-dimethyl-1H-pyrrol-2-yl)-1,3,4-oxadiazol-2-yl)methyl acetate], the IC50 in test [1] stood at 62.4 nM; in test [2], 50.5 nM; in test [3], 127 nM.
In the case of `Cc1[nH]c(-c2nnc(CO)o2)c(C)c1C(=O)c1cc(Br)ccc1O` [Compound 203, (5-bromo-2-hydroxyphenyl)(5-(5-(hydroxymethyl)-1,3,4-oxadiazol-2-yl)-2,4-dimethyl-1H-pyrrol-3-yl)methanone], the IC50 in test [1] is 152 nM; in test [2] it was 171 nM; in test [3], 210 nM.
For `CC(=O)OCCc1nnc(-c2[nH]c(C)c(C(=O)c3cccc(Br)c3)c2C)o1` [Compound 204, 2-(5-(4-(3-bromobenzoyl)-3,5-dimethyl-1H-pyrrol-2-yl)-1,3,4-oxadiazol-2-yl)ethyl acetate] the same measures were 8.9 nM, 5.9 nM and 31.1 nM.
On the same counts, the results for `Cc1[nH]c(-c2nnc(CCO)o2)c(C)c1C(=O)c1cccc(Br)c1` [Compound 205, (3-bromophenyl)(5-(5-(2-hydroxyethyl)-1,3,4-oxadiazol-2-yl)-2,4-dimethyl-1H-pyrrol-3-yl)methanone] are 37 nM, 20.3 nM and 64.9 nM.
On the same counts, the results for `C=Cc1nnc(-c2[nH]c(C)c(C(=O)c3cccc(Br)c3)c2C)o1` [Compound 206, (3-bromophenyl)(2,4-dimethyl-5-(5-vinyl-1,3,4-oxadiazol-2-yl)-1H-pyrrol-3-yl)methanone] are 9.5 nM, 8.8 nM and 31.5 nM.
As for `CC(=O)OCc1nnc(-c2[nH]c(C)c(C(=O)c3cccc(Br)c3)c2C)o1` [Compound 210, (5-(4-(3-bromobenzoyl)-3,5-dimethyl-1H-pyrrol-2-yl)-1,3,4-oxadiazol-2-yl)methyl acetate], the results for the half-inhibitory concentration (IC50) in test [1], in test [2] and in test [3] were 42.9 nM, 39.3 nM and 205 nM, respectively.
For `Cc1[nH]c(-c2nnc(CO)o2)c(C)c1C(=O)c1cccc(Br)c1` [Compound 211, (3-bromophenyl) (5-(5-(hydroxymethyl)-1,3,4-oxadiazol-2-yl)-2,4-dimethyl-1H-pyrrol-3-yl)methanone], the figures for the concentration for half-maximal inhibition (IC50) in test [1], in test [2] and in test [3] were 49.1 nM, 44.1 nM and 183 nM, respectively.
On the same counts, the results for `Cc1[nH]c(-c2nnc(CN)o2)c(C)c1C(=O)c1cccc(Br)c1` [Compound 214, (5-(5-(aminomethyl)-1,3,4-oxadiazol-2-yl)-2,4-dimethyl-1H-pyrrol-3-yl)(3-bromophenyl)methanone] are 286 nM, 230 nM and 999 nM.
